According to patent US20260297136A1, “PEPTIDES WITH LIPOLYTIC, ANTI-LIPOGENIC, ANTIFIBROTIC AND ANTI-INFLAMMATORY ACTIVITY” (FUNDACIÓ HOSPITAL UNIVERSITARI VALL D'HEBRON - INSTITUT DE …, priority 2023, published 2026):

Experiments:
[1] = test system: HepG2 cells; test: Hepatic lipogenesis gene expression (ACC, FAS, ACLY mRNA by RTPCR) in HepG2 cells, Example 2; type: cell-based, human; settings: 10 μM, 24 h, relative to 18S
Protocol: FIG. 5 Human hepatoblastoma cell line HepG2 was treated with vehicle (DMSO) or 10 μM of GP4, GP7, GP8 or GP9 for 24 h. RNA was extracted and mRNA levels of Acetyl-CoA Carboxylase (ACC), Fatty Acid Synthase (FAS) and ATP-Citrate Lyase (ACLY) relative to 18S were measured by RTPCR.
Cell culture reagents were from Life Technologies Inc (Invitrogen SA, Barcelona, Spain). HepG2 hepatoblastoma cells (cat. no. HB-8065; ATCC, LGC Standards SLU, Barcelona, Spain) were maintained in Dulbecco's modified Eagle medium (DMEM) supplemented with 10% fetal bovine serum and antibiotics. HepG2 cells were treated with vehicle or 10 μM of GP4, GP7, GP8 and GP9 for 24 h. LX-2 human hepatic stellate cells (SCC064) were maintained in DMEM supplemented with 2% fetal bovine serum and antibiotics. For experiments, LX-2 were cultured for 24 h in DMEM 0.2% FBS and treated for 24 h with vehicle or TGFβ1 (20 ng/ml) in the absence or presence of 8 μM of GP4, GP7, GP8 and GP9 for 24 h. At the end of the experiment's cells were harvested for gene expression analysis.
Total RNA was extracted from HepG2 and LX-2 cells using TRIzol reagent (Invitrogen SA). Reverse transcription was performed at 42° C. for 50 minutes using […] of total RNA, 200 U of Superscript II, and an oligo-dT primer and reagents provided by Invitrogen. An aliquot of the reverse transcription product was amplified in a […] reaction using SYBRGreen (Invitrogen SA) with appropriate oligonucleotide primer pairs corresponding to human ACC, FAS, ACLY, Col1A1 and 18S (shown in table 7). Results were analyzed using the 7000 Sequence Detection System program (Applied Biosystems, Thermo Fisher Scientific, Barcelona, Spain) (Sex Hormone-Binding Globulin Reduction in Metabolic Disorders May Play a Role in NAFLD Development.Saez-Lopez C, Barbosa-Desongles A, Hernandez C, Dyer R A, Innis S M, Simo R, Selva D M. Endocrinology. 2017 Mar. 1; 158(3):545-559. doi: 10.1210/en.2016-1668).

[2] = test system: human mature adipocytes; test: Lipolysis in human mature adipocytes (glycerol production), Example 2; type: cell-based; settings: 10 μM, 16 h, with respect to control cells
Protocol: FIG. 7. Mature human subcutaneous adipocytes were treated with vehicle (DMSO), 3 μM of Isoproterenol or 10 μM of GP4, GP8 or GP9 for 16 h. Glycerol concentration was assessed using a Lipolysis Assay Kit (Tebu-bio). Lipolysis induction was calculated with respect to the control cells treated with DMSO.
Human preadipocytes and cell culture reagents were from purchased from Tebu-Bio (Tebu-bio, Barcelona, Spain) and differentiation protocol was done following the manufacturer's instructions. Human adipocytes were maintained in a humidified incubator with 5% CO2 at 37° C. (Sex hormone-binding globulin overexpression protects against high-fat diet-induced obesity in transgenic male mice. Saez-Lopez C, Villena J A, Simo R, Selva D M. J Nutr Biochem. 2020 November; 85:108480. doi: 10.1016/j.jnutbio.2020.108480).
Lipolysis assays were performed using a Lipolysis Kit (Tebu-Bio) following the manufacturer's instructions as previously described.

[3] = test system: HepG2 cells; test: Hepatic lipogenic key enzymes in HepG2 cells in the presence of 30 mM fructose (2 h), Example 7; type: cell-based, human; settings: 40 μg/ml
Protocol: FIG. 34. Effects of different peptides and SHBG in reducing hepatic lipogenic key enzymes in the presence of 30 mM fructose. Each bar within each group represents mRNA levels of a key hepatic lipogenic enzyme, from left to right: Acetyl-CoA Carboxylase (ACC), ATP Citrate Lyase (ACLY) and Fatty Acid Synthase (FAS), and a key transcription factor regulating several lipogenic enzymes such as PPARγ (PPARγ).
(§1) Cell culture reagents were from Life Technologies Inc (Invitrogen SA, Barcelona, Spain). HepG2 hepatoblastoma cells (cat. no. HB-8065; ATCC, LGC Standards SLU, Barcelona, Spain) were maintained in Dulbecco's modified Eagle medium (DMEM) supplemented with 10% fetal bovine serum and antibiotics.
(§2) • HepG2 cells were cultured for 5 day in the absence or presence of 30 mM fructose. Cells cultured in 30 mM fructose were daily treated with vehicle, Telmisartan, Semaglutide or EDL6D. • HepG2 cells were cultured for 24 h in the absence or presence of GP6 (40 μg/ml), GP10 (40 μg/ml), GP11 (40 μg/ml), GP12 (40 μg/ml), GP13 (40 μg/ml) or SHBG (20 nM). • HepG2 cells were cultured in the absence or presence of 30 mM fructose and treated for 2 h with vehicle or GP4 (40 μg/ml), GP6 (40 μg/ml), GP7 (40 μg/ml), GP8 (40 μg/ml), GP9 (40 μg/ml), GP10 (40 μg/ml), GP11 (40 μg/ml), GP12 (40 μg/ml), GP13 (40 μg/ml) or SHBG (20 nM).
(§3) Total RNA was extracted from HepG2 and LX-2 cells using TRIzol reagent (Invitrogen SA). Reverse transcription was performed at 42° C. for 50 minutes using […] of total RNA, 200 U of Superscript II, and an oligo-dT primer and reagents provided by Invitrogen. An aliquot of the reverse transcription product was amplified in a […] reaction using SYBRGreen (Invitrogen SA) with appropriate oligonucleotide primer pairs corresponding to human SHBG, ACC, FAS, ACLY, PPARG, and 18S and mouse ACC, FAS, ACLY, PPARG, Col1A1 and 18S. Results were analyzed using the 7000 Sequence Detection System program (Applied Biosystems, Thermo Fisher Scientific, Barcelona, Spain) (Shez-Lopez et al Endocrinology 2017).

[4] = test system: obesity and fatty liver disease mouse model; test: Therapeutic effects in an obesity and fatty liver disease mouse model, Example 6; type: in vivo, C57BL6/J male mice; settings: Telmisartan 5 mg/kg/day in drinking water, 10 weeks
Protocol: C57BL6/J male mice were purchased and kept for quarantine and acclimatization for a period of about 7 days before initiation of every experiment. Mice were housed in clean and sterilized mice cages and maintained in a controlled environment with 22+3° C. temperature, 50+20% humidity, a light/dark cycle of 12 hours each and 15-20 fresh air changes per hour.
For Obesity and NAFLD induction, the animals were fed ad libitum, either with chow diet (150SP-10, Safe Diets) or 45% high-fat diet (TD.190179, Envigo) plus 30% fructose (F0127, Sigma Aldrich) in drinking water for 20 weeks. The therapeutic effect of a daily subcutaneous injection of GP6 (20 mg/kg/day) in this mouse model was assessed for 10 weeks, starting the treatment on week 10 of the experiment until week 20.
A group of control mice (n=10) was fed with control diet and regular drinking water and a group of mice (n=30) obesity and fatty liver disease was induced for 10 weeks. At this point, mice were randomly divided in three groups of n=10, the first group was treated with daily subcutaneous injections of vehicle (water), the second group was treated with Telmisartan (5 mg/kg/day) in the drinking water and a subcutaneous injection of vehicle, and the third group with daily subcutaneous injection of GP6 (20 mg/kg/day) during 10 weeks.
At the end of the experiment mice were sacrificed, serum samples were extracted, tissues were weighted and part was fixed in paraformaldehyde for histology studies and part immediately frozen at −80 C for mRNA and protein expression studies as well as assessment of triglycerides.
The histology studies, AST and ALT measurements, TG measurements, and the RNA analysis were performed as described in Example 4.

[5] = test system: HepG2 cells; test: Hepatic lipogenesis gene expression in HepG2 cells (24 h), Example 7; type: cell-based, human; settings: 40 μg/ml, vs vehicle
Description: FIG. 32. Effect of GP6 and modified peptides on hepatic lipogenesis in HepG2 cells. Each bar within each group represents mRNA levels of a key hepatic lipogenic enzyme, from left to right: Acetyl-CoA Carboxylase (ACC), ATP Citrate Lyase (ACLY) and Fatty Acid Synthase (FAS), and a key transcription factor regulating several lipogenic enzymes such as PPARγ (PPARγ).
as §1, §2, §3

CC[C@@H](C)[C@@H](NC(=O)[C@@H](CCCCN)NC(=O)[C@H](NC(=O)[C@@H](CC(C)C)NC(=O)[C@@H](CC(=O)O)NC(=O)[C@@H](Cc1ccccc1)NC(=O)[C@H](NC(=O)[C@@H](CCSC)NC(=O)[C@H](N)C(C)C)[C@H](C)O)[C@H](C)O)C(=O)N[C@@H](C(=O)N[C@H](CCCCN)C(=O)N[C@@H](C(=O)N[C@H](CO)C(=O)N[C@H](CO)C(=O)N[C@H](CO)C(=O)N[C@H](Cc1ccccc1)C(=O)N[C@H](CCC(=O)O)C(=O)N[C@@H](C(=O)N[C@H](CCCNC(=N)N)C(=O)N[C@@H](C(=O)N[C@H](Cc1c[nH]c2ccccc12)C(=O)N[C@H](CC(=O)O)C(=O)N1CCC[C@@H]1C(=O)N[C@H](CCC(=O)O)C(=O)NCC(=O)N[C@@H](C(=O)N[C@@H](C(=O)N[C@H](Cc1ccccc1)C(=O)N[C@H](Cc1ccc(O)cc1)C(=O)O)[C@H](C)CC)C(C)C)[C@H](C)O)C(C)C)[C@H](C)O)[C@H](C)O [GP4]
ATP-Citrate Lyase (ACLY) mRNA levels [1]: did not alter
Acetyl-CoA Carboxylase (ACC) mRNA levels [1]: reduced
Fatty Acid Synthase (FAS) mRNA levels [1]: increased
increase of glycerol production (lipolysis) [2]: 500%
fructose-induced expression of ACC [3]: able to reduce
fructose-induced expression of ACLY [3]: able to reduce
fructose-induced expression of FAS [3]: able to reduce
fructose-induced expression of PPARγ [3]: able to reduce

CC[C@@H](C)[C@@H](NC(=O)[C@H](NC(=O)CNC(=O)[C@@H](CCC(=O)O)NC(=O)[C@H]1CCCN1C(=O)[C@@H](CC(=O)O)NC(=O)[C@@H](Cc1c[nH]c2ccccc12)NC(=O)[C@H](N)[C@H](C)O)C(C)C)C(=O)N[C@H](Cc1ccccc1)C(=O)N[C@H](Cc1ccc(O)cc1)C(=O)NCC(=O)N[C@H](CC(=O)O)C(=O)N[C@@H](C(=O)N[C@H](CC(N)=O)C(=O)N1CCC[C@@H]1C(=O)N[C@H](CCCCN)C(=O)N[C@H](CC(=O)O)C(=O)N[C@H](CC(=O)O)C(=O)N[C@H](Cc1c[nH]c2ccccc12)C(=O)N[C@H](Cc1ccccc1)C(=O)O)[C@H](C)O [GP7]
ATP-Citrate Lyase (ACLY) mRNA levels [1]: reduced
Acetyl-CoA Carboxylase (ACC) mRNA levels [1]: reduced
Fatty Acid Synthase (FAS) mRNA levels [1]: increased
fructose-induced expression of ACC [3]: able to reduce the expression of ACC and ACLY more effectively than SHBG
fructose-induced expression of ACLY [3]: able to reduce the expression of ACC and ACLY more effectively than SHBG
fructose-induced expression of FAS [3]: had no effect on FAS and PPARγ expression
fructose-induced expression of PPARγ [3]: had no effect on FAS and PPARγ expression

CCCc1nc2c(C)cc(-c3nc4ccccc4n3C)cc2n1Cc1ccc(-c2ccccc2C(=O)O)cc1 [Telmisartan, reference compound]
liver triglyceride (TAG) content [4]: failed to decrease TAG liver content
liver weight [4]: did not reduced significantly
Total body weight versus control mice ([4]; vs control diet mice): significantly increased
serum glucose levels ([4]; vs vehicle): did not have any effect

ATKTSASFEVRTWDPEAVIFY [GP10]
ACC mRNA levels [5]: reduced the mRNA levels
ACLY mRNA levels [5]: reduced the mRNA levels
FAS mRNA levels [5]: reduced the mRNA levels
PPARγ mRNA levels [5]: reduced the mRNA levels
fructose-induced expression of ACC [3]: able to reduce
fructose-induced expression of ACLY [3]: able to reduce
fructose-induced expression of FAS [3]: able to reduce
fructose-induced expression of PPARγ [3]: able to reduce

TKTASAFEVRTWDPEGVIFY [GP12]
ACC mRNA levels [5]: reduced all key lipogenic genes except FAS
ACLY mRNA levels [5]: reduced all key lipogenic genes except FAS
PPARγ mRNA levels [5]: reduced all key lipogenic genes except FAS
fructose-induced expression of ACC [3]: able to reduce
fructose-induced expression of ACLY [3]: able to reduce
fructose-induced expression of FAS [3]: able to reduce
fructose-induced expression of PPARγ [3]: able to reduce

TKTASAFEVRTWDPEGVIFYGDTNPKDDWF [GP11]
ACC mRNA levels [5]: reduced the mRNA levels
ACLY mRNA levels [5]: reduced the mRNA levels
FAS mRNA levels [5]: reduced the mRNA levels
PPARγ mRNA levels [5]: reduced the mRNA levels
fructose-induced expression of ACC [3]: able to reduce
fructose-induced expression of ACLY [3]: able to reduce
fructose-induced expression of FAS [3]: able to reduce
fructose-induced expression of PPARγ [3]: able to reduce

TKTSASFEVRTWDPEGVIFYADTNPKDDWF [GP13]
ACC mRNA levels [5]: able to reduce
ACLY mRNA levels [5]: no ACLY and PPARγ
FAS mRNA levels [5]: able to reduce
PPARγ mRNA levels [5]: no ACLY and PPARγ
fructose-induced expression of ACC [3]: able to reduce the expression of ACC and ACLY more effectively than SHBG
fructose-induced expression of ACLY [3]: able to reduce the expression of ACC and ACLY more effectively than SHBG
fructose-induced expression of FAS [3]: had no effect on FAS
fructose-induced expression of PPARγ [3]: increased PPARγ expression
